For this assay, the target named is T1, SthK-Cterm (Winmispira thermophila, UniProt E0RR11).
T1 construct: gene STHERM_c06300; C-linker/CNBD, residues 226-430 of full length; synthetic gene, His6-MBP fusion cut with thrombin; E. coli BL21(DE3); tetramer (SEC-MALLS); model residues 226-423
Put plainly: X-ray crystal structure. The note with it: antagonist; 5 mM cGMP added; bistrispropane pH 7.5, 20 °C; 2.55 Å; cyclic nucleotide-binding site.

T1 sequence (E0RR11 entry or part of it): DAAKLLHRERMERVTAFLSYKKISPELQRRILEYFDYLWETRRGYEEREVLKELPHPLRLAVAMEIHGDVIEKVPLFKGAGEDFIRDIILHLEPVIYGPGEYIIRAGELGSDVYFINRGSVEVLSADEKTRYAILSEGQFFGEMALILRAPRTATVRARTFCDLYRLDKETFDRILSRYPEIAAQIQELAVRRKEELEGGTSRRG

In the case of `Nc1nc2c(ncn2[C@@H]2O[C@@H]3COP(=O)(O)O[C@H]3[C@H]2O)c(=O)[nH]1` [cGMP], the X-ray crystal structure result is recorded as “we observe that cGMP is able to bind in the cyclic nucleotide binding cavity from SthK”.

(Values after paper PMC4308110 (PLoS ONE, 2015).)
